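These data come from cells grown in 96-well plates and exposed to compound for 48 hours at five concentrations. GI50 = concentration required for 50% inhibition of growth.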 The source made the active and inactive calls. No stated cut-off is given here; in the data, active = GI50 up to about 1.1 µM and inactive = higher.
Tests used:
Experiment in all cases: inhibition of tumour cell growth, NCI panel, 48 h
[1] = test system: RPMI-8226
[2] = test system: NCI/ADR-RES
[3] = test system: UACC-62
[4] = test system: SN12C
[5] = test system: OVCAR-8
[6] = test system: MCF7
[7] = test system: SNB-75
[8] = test system: BT-549
[9] = test system: SNB-19
[10] = test system: MDA-N
[11] = test system: OVCAR-4
[12] = test system: NCI-H226
[13] = test system: OVCAR-3
[14] = test system: ACHN
[15] = test system: HOP-92
[16] = test system: SF-295
[17] = test system: K562
[18] = test system: EKVX
[19] = test system: SK-MEL-28
[20] = test system: HCT-15
[21] = test system: CAKI-1
[22] = test system: HCT-116
[23] = test system: M14
[24] = test system: DU-145
[25] = test system: HOP-62
[26] = test system: NCI-H460
[27] = test system: T47D
[28] = test system: LOX IMVI
[29] = test system: MDA-MB-435
[30] = test system: SK-OV-3
[31] = test system: MDA-MB-231
[32] = test system: Malme-3M
[33] = test system: OVCAR-5
[34] = test system: KM12
[35] = test system: SW-620
[36] = test system: A498
[37] = test system: A549
[38] = test system: HCC 2998
[39] = test system: Hs-578T
[40] = test system: IGROV-1
[41] = test system: HL-60
[42] = test system: UACC-257
[43] = test system: NCI-H23
[44] = test system: SF-268
[45] = test system: PC-3
[46] = test system: HT-29
[47] = test system: SF-539
[48] = test system: UO-31
[49] = test system: TK-10
[50] = test system: SK-MEL-2
[51] = test system: U-251
[52] = test system: SK-MEL-5
[53] = test system: NCI-H522
[54] = test system: 786-0
[55] = test system: COLO 205
[56] = test system: MOLT-4
[57] = test system: SR
[58] = test system: RXF 393
[59] = test system: CCRF-CEM

`CCCCCCCCCCCCCCCCCCNc1ccn(C2OC(CO)C(OP(=O)(O)OCC(O)COP(=O)(O)OCC3OC(n4cc(F)c(NCCCCCCCCCCCCCCCCCC)nc4=O)CC3O)C2O)c(=O)n1` (stereo not given) was tested, and the GI50 [1] was > 50 µM (inactive), the GI50 [2] was > 50 µM (inactive) and the GI50 [3] was > 50 µM (inactive). The GI50 [4] was > 50 µM (inactive), the GI50 [5] was > 50 µM (inactive) and the GI50 [6] was > 50 µM (inactive). For the same compound, the GI50 [7] was > 50 µM (inactive), the GI50 [8] was > 50 µM (inactive) and the GI50 [9] was > 50 µM (inactive). For the same compound, the GI50 [10] was > 50 µM (inactive), the GI50 [11] was > 50 µM (inactive) and the GI50 [12] was > 50 µM (inactive). The GI50 [13] was > 50 µM (inactive), the GI50 [14] was > 50 µM (inactive) and the GI50 [15] was > 50 µM (inactive). The GI50 [16] was > 50 µM (inactive), the GI50 [17] was > 50 µM (inactive) and the GI50 [18] was > 50 µM (inactive). The GI50 [19] was > 50 µM (inactive), the GI50 [20] was greater than 50 µM and the GI50 [21] was > 50 µM (inactive). For the same compound, the GI50 [22] was > 50 µM (inactive), the GI50 [23] was > 50 µM (inactive) and the GI50 [24] was > 50 µM (inactive). For the same compound, the GI50 [25] was > 50 µM (inactive), the GI50 [26] was > 50 µM (inactive) and the GI50 [27] was > 50 µM (inactive). For the same compound, the GI50 [28] was > 50 µM (inactive), the GI50 [29] was > 50 µM (inactive) and the GI50 [30] was > 50 µM (inactive). The GI50 [31] was > 50 µM (inactive), the GI50 [32] was > 50 µM (inactive) and the GI50 [33] was > 50 µM (inactive). For the same compound, the GI50 [34] was > 50 µM (inactive), the GI50 [35] was > 50 µM (inactive) and the GI50 [36] was > 50 µM (inactive). The GI50 [37] was > 50 µM (inactive), the GI50 [38] was > 50 µM (inactive) and the GI50 [39] was > 50 µM (inactive). The GI50 [40] was > 50 µM (inactive), the GI50 [41] was > 50 µM (inactive) and the GI50 [42] was > 50 µM (inactive). The GI50 [43] was > 50 µM (inactive), the GI50 [44] was > 50 µM (inactive) and the GI50 [45] was > 50 µM (inactive). The GI50 [46] was > 50 µM (inactive), the GI50 [47] was > 50 µM (inactive) and the GI50 [48] was > 50 µM (inactive). For the same compound, the GI50 [49] was > 50 µM (inactive), the GI50 [50] was > 50 µM (inactive) and the GI50 [51] was > 50 µM (inactive). The GI50 [52] was > 50 µM (inactive), the GI50 [53] was > 50 µM (inactive) and the GI50 [54] was > 50 µM (inactive). For the same compound, the GI50 [55] was > 50 µM (inactive).
`Cc1cc2c(c(/C=N/c3ccccc3O)c1)OC1(C=C2)Oc2ccccc2C(=O)N1C` (stereo not given) was tested, and the GI50 [1] was 21.2 µM (inactive), the GI50 [2] was 17.3 µM (inactive) and the GI50 [3] was 17.8 µM (inactive). The GI50 [4] was 20.9 µM (inactive), the GI50 [5] was 17.7 µM (inactive) and the GI50 [7] was 18.6 µM (inactive). For the same compound, the GI50 [8] was 18.7 µM (inactive), the GI50 [9] was 24.7 µM (inactive) and the GI50 [56] was 13.5 µM (inactive). For the same compound, the GI50 [10] was 28.2 µM (inactive), the GI50 [11] was 23.1 µM (inactive) and the GI50 [12] was 15.4 µM (inactive). For the same compound, the GI50 [13] was 12.8 µM (inactive), the GI50 [14] was 14.2 µM (inactive) and the GI50 [15] was 11.8 µM (inactive). For the same compound, the GI50 [16] was 24.7 µM (inactive), the GI50 [17] was 12.3 µM (inactive) and the GI50 [18] was 14 µM (inactive). The GI50 [19] was 18.3 µM (inactive), the GI50 [20] was 15.9 µM and the GI50 [21] was 13.3 µM (inactive). For the same compound, the GI50 [22] was 14.3 µM (inactive), the GI50 [23] was 15.5 µM (inactive) and the GI50 [24] was 14.9 µM (inactive). The GI50 [25] was 18.8 µM (inactive), the GI50 [26] was 16.7 µM (inactive) and the GI50 [27] was 1.57 µM (inactive). The GI50 [28] was 12.8 µM (inactive), the GI50 [29] was 22.6 µM (inactive) and the GI50 [30] was 24.4 µM (inactive). The GI50 [31] was 16.3 µM (inactive), the GI50 [57] was 15.8 µM (inactive) and the GI50 [33] was 13.2 µM (inactive). For the same compound, the GI50 [34] was 20.8 µM (inactive), the GI50 [35] was 22.3 µM (inactive) and the GI50 [36] was 18.6 µM (inactive). The GI50 [37] was 21.7 µM (inactive), the GI50 [38] was 15.8 µM (inactive) and the GI50 [58] was 13 µM (inactive). The GI50 [39] was 11.6 µM (inactive), the GI50 [40] was 21.5 µM (inactive) and the GI50 [41] was 27 µM (inactive). For the same compound, the GI50 [42] was 14.1 µM (inactive), the GI50 [43] was 17.8 µM (inactive) and the GI50 [44] was 14.4 µM (inactive). The GI50 [45] was 17.4 µM (inactive), the GI50 [46] was 16.6 µM (inactive) and the GI50 [48] was 10.6 µM (inactive). The GI50 [49] was 16.8 µM (inactive), the GI50 [50] was 19.5 µM (inactive) and the GI50 [51] was 18.2 µM (inactive). The GI50 [59] was 17.1 µM (inactive), the GI50 [52] was 15.2 µM (inactive) and the GI50 [54] was 14.4 µM (inactive). The GI50 [55] was 22.9 µM (inactive).
